Laboratory results published in patent US10167299B2, “1-(3-aminopropyl) substituted cyclic amine compounds, preparation method therefor, and pharmaceutical compositions and uses thereof” (SHANGHAI INSTITUTE OF MATERIA MEDICA, CHINESE ACADEMY OF …, priority 2013, dated 2019).
Converted amounts (≈) assume the structure as drawn. Where two headings read alike, the source gives them in different places.

Tests used:
[1] = Cytotoxicity (CC50) in TZM-bl cells; format: cell-based; details: human; TZM-bl cells (Table 3); read-out: CC50
HIV-1SF162 virus strain [2] = assay: Inhibition of viral replication in PBMC infected with HIV-1SF162; format: cell-based
Method: (§1) The virus was titrated according to the modified method of Johnson & Byington. Briefly, the HIV-1 stock solution was subject to four-fold dilution in a 96-well plate (ten gradients) sextuplicate for each gradient, while setting six control-wells. Into each well was added 100 μl (5×10^6/ml) PHA-stimulated PBMC cells and final volume per well was 200 μl. The cells were cultured at 37° C. with 5% CO2. […] On the seventh day, the infected supernatant was collected and lysed with 0.5% Triton X100. The p24 antigen was detected by ELISA and TCID50 of virus was calculated according to Reed & Muench method (50% Tissue culture infection dose).
(§2) The starting concentration was 1 μM, six dilutions were obtained, and each well contained 200 μl mixture. While wells not containing drugs were set as control. […] After homogeneously mixed, the mixture was immediately added to 48-well plate containing diluted drug and each well was added with 200 μl of mixture. MVC was used as positive control. The cells were cultured at 37° C. with 5% CO2 for seven days (drug with the same concentration was added on the third day). The supernatant was collected, lysed and inactivated with 0.5% Triton X-100. The inhibition effect of drug on HIV-1 replication was detected using p24 antigen capture ELISA method.

HIV-1KM018 virus strain = assay: Inhibition of viral replication in PBMC infected with HIV-1KM018; format: cell-based
Method: as §1, §2

HIV-1Ba-L virus strain [3] = assay: Inhibition of viral replication in PBMC infected with HIV-1Ba-L; format: cell-based
Method: The virus was titrated according to the modified method of Johnson & Byington. Briefly, the HIV-1 stock solution was subject to four-fold dilution in a 96-well plate (ten gradients) sextuplicate for each gradient, while setting six control-wells. Into each well was added 100 μl (5×10^6/ml) PHA-stimulated PBMC cells and final volume per well was 200 μl. The cells were cultured at 37° C. with 5% CO2. On the third day, 100 μl of fresh RPMI-1640 complete medium was supplemented. On the seventh day, the infected supernatant was collected and lysed with 0.5% Triton X100. The p24 antigen was detected by ELISA and TCID50 of virus was calculated according to Reed & Muench method (50% Tissue culture infection dose).
The compound to be tested was subject to 5-fold dilution in 48-well plate with RPMI-1640 complete medium (containing 10% FBS). The starting concentration was 1 μM, six dilutions were obtained, and each well contained 200 μl mixture. While wells not containing drugs were set as control. Virus (MOI=0.01) was added to 5×10^6/ml of PBMC cells which have been stimulated by PHA for 72 h. After homogeneously mixed, the mixture was immediately added to 48-well plate containing diluted drug and each well was added with 200 μl of mixture. MVC was used as positive control. The cells were cultured at 37° C. with 5% CO2 for seven days (drug with the same concentration was added on the third day). The supernatant was collected, lysed and inactivated with 0.5% Triton X-100. The inhibition effect of drug on HIV-1 replication was detected using p24 antigen capture ELISA method.

[4] = Toxicity test of compounds on PBMC cells (MTT); format: cell-based; details: human, PBMC cells (Table 4)
Method: (§3) The compound to be tested was subject to 5-fold dilution in a 96-well microtiter plate with RPMI-1640 or DMEM complete medium (containing 10% FBS) (Six dilution) triplicate for each dilution and 100 μl for each well. While wells not containing drugs were set as control. Into each well was added 100 μl of 4×10^5/ml PM1, HOS-CD4-CCR5 cells or 100 μl of 5×10^6/ml PHA stimulated PBMC. The cells were cultured at 37° C. with 5% CO2 for three days (PBMC cells were cultured for seven days and 100 μl of fresh RPMI-1640 complete medium was supplemented on the third day). Cytotoxicity was tested with MTT assay. OD values were measured by ELx800 microplate reader. The detection wavelength was 570 nm, and the reference wavelength was 630 nm.

HIV-1Ba-L virus strain [5] = assay: Inhibition of viral replication in HOS-CD4-CCR5 cells infected with HIV-1Ba-L; format: cell-based
Method: (§4) On the day before the test, 1×10^5/ml of HOS-CD4-CCR5 cells were inoculated in 96-well plates with 100 μl for each well. The compound to be tested was subject to 5-fold dilution in 96-well microtiter plate with DMEM complete medium (containing 10% FBS). The starting concentration was 1 μM and six dilutions were obtained. Triplicate wells were set for each dilution and each well contained 100 μl mixture. While wells not containing drugs were set as control. The supernatant was removed and 100 μl of drug was added and incubated for 2 h. Then 100 μl of HIV-1SF162 and HIV-1Ba-L were added to dilute supernatant. The cells were infected for 1 h, free virus was washed out and drug with the same final concentration was added. MVC was used as positive control. The cells were cultured at 37° C. with 5% CO2 for three days. The supernatant was collected, lysed and inactivated with 0.5% Triton X-100. The inhibition effect of drug on HIV-1 replication was detected using p24 antigen capture ELISA method.

HIV-1SF162 virus strain [6] = assay: Inhibition of viral replication in HOS-CD4-CCR5 cells infected with HIV-1SF162; format: cell-based
Method: as §4

[7] = Toxicity test of compounds on HOS-CD4-CCR5 cells (MTT); format: cell-based; details: human; HOS-CD4+-CCR5 cells (Table 7)
Method: as §3

CYP1A2 = CYP1A2 (Homo sapiens (Human), UniProt P05177); assay: CYP450 inhibition activity assay (Vivid kit) CYP1A2; format: in vitro ADME; details: CYP450 subtype (μM) 1A2 (IC50)
Method: VividR CYP450 Screening Kits can be used to evaluate the effects on CYP450 subtypes (CYP1A2, CYP2D6, CYP2C9, CYP2C19, CYP3A4-T and CYP3A4-M) and the substrate VividR in the kit can be metabolizd to a product which can emit strong fluorescence in an aqueous solution by specific CYP450 enzymes.
The compounds to be tested and positive compound were added to corresponding wells and DMSO was added to control wells.
CYP450 enzyme was added to the compounds to be tested, positive compound and DMSO control wells. The enzyme dilution was used to replace enzyme and added to DMSO wells as test background. The mixture was vibrated and mixed for 1 minute, and then incubated at room temperature for 20 minutes.
NADP^+ regeneration system and the substrate were added to initiate the reaction and incubated at room temperature for 60 minutes.

in vivo = details: male, rat
HIV-1SF162 virus strain [8] = assay: Inhibition activity on TZM-bl cells infected with HIV-1SF162; details: for EC50: Human immunodeficiency virus 1, TZM-bl; for therapeutic index (TI): TZM-bl cells infected with HIV-1SF162; for cytotoxicity in vitro and therapeutic index in words, versus positive control compound: TZM-bl cells infected with HIV-1SF162, conclusion from Table 3
[9] = PBMC cells infected with HIV-1SF162
[10] = PBMC cells infected with HIV-1KM018
[11] = PBMC cells infected with HIV-1Ba-L
[12] = HOS-CD4+-CCR5 cells infected with HIV-1SF162
[13] = Human immunodeficiency virus 1, PBMC
[14] = Human immunodeficiency virus 1, HOS-CD4-CCR5

Sequence of CYP1A2 (P05177 whole entry): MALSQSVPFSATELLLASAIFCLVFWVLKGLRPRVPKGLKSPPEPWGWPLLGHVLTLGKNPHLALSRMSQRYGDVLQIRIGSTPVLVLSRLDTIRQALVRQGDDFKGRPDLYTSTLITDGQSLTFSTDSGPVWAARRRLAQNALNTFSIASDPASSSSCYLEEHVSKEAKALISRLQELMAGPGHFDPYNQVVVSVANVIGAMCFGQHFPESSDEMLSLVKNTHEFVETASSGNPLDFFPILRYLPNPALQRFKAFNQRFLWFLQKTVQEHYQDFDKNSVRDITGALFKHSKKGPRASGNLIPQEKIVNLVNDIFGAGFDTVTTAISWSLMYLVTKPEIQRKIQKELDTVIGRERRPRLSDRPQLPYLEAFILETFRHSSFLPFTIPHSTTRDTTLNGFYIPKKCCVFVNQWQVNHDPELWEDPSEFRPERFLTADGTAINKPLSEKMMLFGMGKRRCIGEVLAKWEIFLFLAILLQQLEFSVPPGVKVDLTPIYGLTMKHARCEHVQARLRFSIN

Row | SMILES | CC50 [1] | therapeutic index (TI) (HIV-1SF162 virus strain [2]; [9]) | therapeutic index (TI) (HIV-1KM018 virus strain; [10]) | therapeutic index (TI) (HIV-1Ba-L virus strain [3]; [11]) | therapeutic index (TI) (HIV-1SF162 virus strain [6]; [12]) | CC50 at 3 days [7] | IC50 (CYP1A2) | half-life (in vivo; iv, 10 mg/kg) | half-life (in vivo; po, 20 mg/kg) | EC50 (HIV-1SF162 virus strain [8]) | therapeutic index (TI) (HIV-1SF162 virus strain [8]) | cytotoxicity in vitro and therapeutic index in words, versus positive control compound (HIV-1SF162 virus strain [8]) | EC50 (HIV-1SF162 virus strain [2]; [13]) | EC50 (HIV-1KM018 virus strain; [13]) | EC50 (HIV-1Ba-L virus strain [3]; [13]) | CC50 at 7 days [4] | EC50 (HIV-1Ba-L virus strain [5]; [14]) | EC50 (HIV-1SF162 virus strain [6]; [14]) | bioavailability (in vivo) | AUC(0-t) (in vivo; 10 mg/kg) | also measured
1 | Cc1nnc(C(C)C)n1C1CCN(CC[C@H](NC(=O)C2CCCC2)c2cccs2)CC1 [Compound 17, N-[(1S)-3-[4-(3-isopropyl-5-methyl-4H-1,2,4-triazol-4-yl)-piperidin-1-yl]-1-(thiophen-2-yl)propyl]cyclopentane-1-carboxamide] | > 200 µg/mL | 10621 | <438.6 | 438.6 | 8632 | 439 µg/mL (≈ 990 µM) | > 25 µM | 2.22 h | 1.78 h | 0.0129 µg/mL (≈ 0.0292 µM) | >15444.02 | comparable with the positive control compound | – | – | – | – | – | – | – | – | EC50 (HIV-1SF162 virus strain [2]; Human immunodeficiency virus 1, PBMC cells infected with HIV-1SF162, read-out: EC50): 0.0413 µg/mL (≈ 0.0931 µM); EC50 (HIV-1KM018 virus strain; Human immunodeficiency virus 1, PBMC cells infected with HIV-1KM018, read-out: EC50): > 1 µg/mL; EC50 (HIV-1Ba-L virus strain [3]; Human immunodeficiency virus 1, PBMC cells infected with HIV-1Ba-L, read-out: EC50): 0.848 µg/mL (≈ 1.91 µM); CC50 at 7 days ([4]; PHA stimulated PBMC): 439 µg/mL (≈ 989 µM); EC50 (HIV-1Ba-L virus strain [5]; Human immunodeficiency virus 1, HOS-CD4+-CCR5 cells infected with HIV-1Ba-L, read-out: EC50): 0.0155 µg/mL (≈ 0.035 µM); EC50 (HIV-1SF162 virus strain [6]; Human immunodeficiency virus 1, HOS-CD4+-CCR5 cells infected with HIV-1SF162, read-out: EC50): 0.0509 µg/mL (≈ 0.115 µM)
2 | Cc1nnc(C(C)C)n1C1CC2CCC(C1)N2CC[C@H](NC(=O)C1CCCCC1)c1cccs1 (some centres unmarked) [Compound 16] | > 200 µg/mL | 586.3 | 481.1 | 1301.1 | 8042 | 343 µg/mL (≈ 709 µM) | > 25 µM | 0.31 h | 1.16 h | 0.0118 µg/mL (≈ 0.0244 µM) | >16963.53 | comparable with the positive control compound | 0.455 µg/mL (≈ 0.941 µM) | 0.555 µg/mL (≈ 1.15 µM) | 0.365 µg/mL (≈ 0.754 µM) | 267 µg/mL (≈ 552 µM) | 0.0105 µg/mL (≈ 0.0216 µM) | 0.0427 µg/mL (≈ 0.0882 µM) | 14.8% | 5110 ng·h/mL | AUC(0-inf) (in vivo; iv, 10 mg/kg): 5110 ng·h/mL; AUC(0-t) (in vivo; iv, 10 mg/kg): 5110 ng·h/mL; Cmax (in vivo; iv, 10 mg/kg): 4320 ng/mL; MRT (in vivo; iv, 10 mg/kg): 0.79 h; Tmax (in vivo; iv, 10 mg/kg): 0.25 h; AUC(0-inf) (in vivo; po, 20 mg/kg): 1510 ng·h/mL; AUC(0-t) (in vivo; po, 20 mg/kg): 1510 ng·h/mL; Cmax (in vivo; po, 20 mg/kg): 631 ng/mL; MRT (in vivo; po, 20 mg/kg): 2.11 h; Tmax (in vivo; po, 20 mg/kg): 0.25 h; bioavailability (in vivo; po, 20 mg/kg): 14.8%
3 | Cc1ccc([C@H](CCN2C3CCC2CC(n2c(C)nnc2C(C)C)C3)NC(=O)C2CCC(F)(F)CC2)s1 (stereo partly drawn) [Compound 29, 4,4-difluoro-N-[(1S)-3-[exo-3-(3-isopropyl-5-methyl-4H-1,2,4-triazol-4-yl)-8-azabicyclo[3.2.1]octane-8-yl]-1-(5-methylthiophen-2-yl)propyl]cyclohexane-1-carboxamide] | – | – | 1937.2 | 818.3 | – | > 200 µg/mL | > 25 µM | – | 32.8 h | 0.012 µg/mL (≈ 0.0225 µM) | >16666.67 | comparable with the positive control compound | 0.00505 µg/mL (≈ 0.00946 µM) | 0.103 µg/mL (≈ 0.193 µM) | 0.236 µg/mL (≈ 0.442 µM) | > 200 µg/mL | 0.0219 µg/mL (≈ 0.041 µM) | 0.0186 µg/mL (≈ 0.0348 µM) | 40.1% | 2330 ng·h/mL | CC50 at 3 days [1]: > 200 µg/mL; therapeutic index (TI) (HIV-1Ba-L virus strain [5]; HOS-CD4+-CCR5 cells infected with HIV-1Ba-L): >9144; AUC(0-inf) (in vivo; 10 mg/kg): 2330 ng·h/mL; Cmax (in vivo; 10 mg/kg): 1690 ng/mL; MRT (in vivo; 10 mg/kg): 2.29 h; Tmax (in vivo; 10 mg/kg): 0.25 h; half-life (in vivo; 10 mg/kg): 1.6 h; AUC(0-inf) (in vivo; po, 20 mg/kg): 2790 ng·h/mL; AUC(0-t) (in vivo; po, 20 mg/kg): 1870 ng·h/mL; Cmax (in vivo; po, 20 mg/kg): 580 ng/mL; MRT (in vivo; po, 20 mg/kg): 4.79 h; Tmax (in vivo; po, 20 mg/kg): 2 h
